Data on ten molecules can be found in PubChem BioAssay (NCI).

Test systems include A549 NSCLC; BT-549 breast; HOP-62 NSCLC; K-562 leukemia; MDA-MB-231 breast; OVCAR-4 ovarian; OVCAR-8 ovarian; SN12C renal.
Assay in all cases: DTP human tumour cell line panel, 48 h

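Method: 48-hour compound exposure of cells in 96-well plates, five concentrations, linear interpolation of endpoints. Here, GI50 denotes the concentration required for 50% inhibition of growth. TGI denotes the concentration required for complete inhibition of growth.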

One may read the GI50 as the concentration at which growth is held to half of that of the control. The TGI is the concentration at which net growth stops. Lower therefore signals more potent growth arrest. Take `Cn1ccnc1C(=O)/C=C/c1ccc(C(=O)Nc2ccccc2O)cc1`: the GI50 with A549 NSCLC was 3.03 µM; in the test on BT-549 breast, 1.8 µM; in the test with HOP-62 NSCLC it was 4.6 µM; in the test with K-562 leukemia, 0.939 µM; in the test on MDA-MB-231 breast, 3.26 µM; in the test on OVCAR-4 ovarian, 2.5 µM. The GI50 in the test on OVCAR-8 ovarian was 3.29 µM; with SN12C renal, 2.79 µM. For the same molecule, the TGI with A549 NSCLC was determined as 13.6 µM; in the test with BT-549 breast, 5.05 µM; in the test on HOP-62 NSCLC it was 15.1 µM; in the test on K-562 leukemia, 34 µM; in the test on MDA-MB-231 breast, 12.3 µM; with OVCAR-4 ovarian it was 12.5 µM. Also, the TGI in the test with OVCAR-8 ovarian is 14.9 µM; in the test on SN12C renal it was 10.1 µM.

On to `c1ccc2c(-c3nc4ccccc4[nH]3)cccc2c1`, for which the GI50 in the test on A549 NSCLC is 4.36 µM; with BT-549 breast it was 3.3 µM; in the test on HOP-62 NSCLC, 5.35 µM; in the test with K-562 leukemia it was 0.541 µM; in the test on MDA-MB-231 breast, 9.65 µM; with OVCAR-4 ovarian, 10.9 µM. Moreover, the GI50 in the test with OVCAR-8 ovarian was 4.09 µM; with SN12C renal, 5.03 µM. For the same molecule, the TGI in the test with A549 NSCLC is over 100 µM; in the test on BT-549 breast, 80 µM; in the test with HOP-62 NSCLC, 30.3 µM; in the test on K-562 leukemia, 18 µM; in the test with MDA-MB-231 breast, over 100 µM; with OVCAR-4 ovarian, over 100 µM. For the same molecule, the concentration for total growth inhibition (TGI) is 33.3 µM in the test on OVCAR-8 ovarian and over 100 µM in the test on SN12C renal.

Take `Cc1ccc(NSc2ccccc2[N+](=O)[O-])cc1`: the GI50 is 0.951 µM with A549 NSCLC; 2.21 µM in the test on BT-549 breast; 0.283 µM in the test on HOP-62 NSCLC; 0.125 µM in the test on K-562 leukemia; 1.06 µM in the test with MDA-MB-231 breast; 6.26 µM in the test on OVCAR-4 ovarian. The GI50 in the test on OVCAR-8 ovarian is 2.91 µM; in the test with SN12C renal, 1.3 µM. Further, the concentration for total growth inhibition (TGI) in the test on A549 NSCLC is 17.1 µM; in the test on BT-549 breast it was 23 µM; with HOP-62 NSCLC, 18.8 µM; with K-562 leukemia, 22.9 µM; in the test on MDA-MB-231 breast, 15.5 µM; in the test with OVCAR-4 ovarian, 23.2 µM. Besides, the total growth inhibition concentration (TGI) in the test with OVCAR-8 ovarian was 36.3 µM; in the test with SN12C renal it was 21.1 µM.

Take `Cc1nc(N)sc1N=Nc1cc(Cl)c([N+](=O)[O-])cc1Cl`: the concentration for total growth inhibition (TGI) came out at 31.5 µM in the test on A549 NSCLC; 65 µM with HOP-62 NSCLC; 30 µM in the test on K-562 leukemia; 45.9 µM in the test on MDA-MB-231 breast; 36.8 µM with OVCAR-8 ovarian; 56.1 µM with SN12C renal.

In the case of `N#Cc1c(NC(=O)c2cccc3ccccc23)sc2c1CCCC2`, the GI50 in the test with A549 NSCLC is 0.0788 µM; with BT-549 breast, 0.144 µM; with HOP-62 NSCLC, 0.0825 µM; in the test with K-562 leukemia it was 0.0115 µM; in the test with MDA-MB-231 breast, 0.148 µM; with OVCAR-4 ovarian it was 0.19 µM. Moreover, the values for the 50% growth inhibitory concentration (GI50) in the test on OVCAR-8 ovarian and with SN12C renal were 0.0918 µM and 0.157 µM, respectively. Moreover, the TGI in the test with A549 NSCLC is over 25 µM; in the test with BT-549 breast, over 20.9 µM; in the test with HOP-62 NSCLC it was over 25 µM; in the test on K-562 leukemia, over 25 µM; in the test with MDA-MB-231 breast, over 14.5 µM; with OVCAR-4 ovarian, over 25 µM. Further, the total growth inhibition concentration (TGI) in the test with OVCAR-8 ovarian and in the test with SN12C renal was over 25 µM each time.

Consider `O=C(Nc1cccnc1)c1cccc([N+](=O)[O-])c1`, for which the GI50 in the test with A549 NSCLC, with BT-549 breast, with HOP-62 NSCLC, in the test on K-562 leukemia, in the test on MDA-MB-231 breast and with OVCAR-4 ovarian was over 100 µM each time. Also, the GI50 with OVCAR-8 ovarian and in the test on SN12C renal was over 100 µM each time. For the same molecule, the TGI with A549 NSCLC, in the test on BT-549 breast, in the test on HOP-62 NSCLC, with K-562 leukemia, in the test with MDA-MB-231 breast and in the test on OVCAR-4 ovarian was over 100 µM each time. Besides, the TGI in the test with OVCAR-8 ovarian and in the test on SN12C renal was over 100 µM throughout.

As to `CN(C)c1ccc(/C=C/c2ccnc3ccccc23)cc1N`, the TGI in the test on A549 NSCLC stood at 32.6 µM; in the test with HOP-62 NSCLC it was 28.4 µM; with K-562 leukemia it was 23.6 µM; in the test on MDA-MB-231 breast it was 20.1 µM; with OVCAR-4 ovarian it was 32.9 µM; with OVCAR-8 ovarian, 22.1 µM. Moreover, the TGI in the test on SN12C renal was 34.4 µM.

For the molecule `CN1C(=O)c2cc([N+](=O)[O-])ccc2[C@H]2C(=O)c3cc4c(cc3[C@H]21)OCO4`, the GI50 is 0.115 µM in the test on A549 NSCLC; 0.158 µM with HOP-62 NSCLC; 0.199 µM in the test on K-562 leukemia; 0.36 µM in the test with MDA-MB-231 breast; 0.68 µM in the test on OVCAR-4 ovarian; 0.0702 µM with OVCAR-8 ovarian. In addition, the 50% growth inhibitory concentration (GI50) with SN12C renal is 0.0386 µM. Further, the TGI with A549 NSCLC is 1.88 µM; in the test on HOP-62 NSCLC it was over 100 µM; with K-562 leukemia it was over 100 µM; in the test with MDA-MB-231 breast, 4.71 µM; in the test on OVCAR-4 ovarian, over 100 µM; in the test on SN12C renal, 0.838 µM.

Turning to `Cc1cc(NCCCCNc2ccnc3cc(Cl)ccc23)nc(Nc2ccc(C(=O)N3CCCC3)cc2)n1`, the GI50 in the test with A549 NSCLC is 3.29 µM; in the test with BT-549 breast, 1.83 µM; with HOP-62 NSCLC, 2.21 µM; with K-562 leukemia it was 0.306 µM; in the test on MDA-MB-231 breast it was 2.14 µM; with OVCAR-4 ovarian it was 2.32 µM. The GI50 in the test with OVCAR-8 ovarian was 3.14 µM; with SN12C renal, 2.85 µM. Further, the total growth inhibition concentration (TGI) with A549 NSCLC was determined as 10.7 µM; in the test on BT-549 breast, 4.38 µM; in the test with HOP-62 NSCLC it was 4.74 µM; with K-562 leukemia, 2.33 µM; in the test on MDA-MB-231 breast, 5.12 µM; in the test on OVCAR-4 ovarian it was 11 µM. Further, the total growth inhibition concentration (TGI) amounted to 11.2 µM in the test with OVCAR-8 ovarian and 11.4 µM in the test with SN12C renal.

Turning to `COc1cc2c3c(n(CCCNC(=O)OCC4c5ccccc5-c5ccccc54)c(=O)c2cc1OC)-c1cc2c(cc1C3=O)OCO2`, the GI50 with A549 NSCLC was over 100 µM; in the test on HOP-62 NSCLC, 13.7 µM; with K-562 leukemia, over 79.4 µM; with MDA-MB-231 breast, 15.9 µM; with OVCAR-4 ovarian, over 100 µM; in the test on OVCAR-8 ovarian it was over 93.6 µM. The GI50 with SN12C renal is over 100 µM. Moreover, the TGI is over 100 µM in the test with A549 NSCLC; over 74 µM in the test on HOP-62 NSCLC; over 100 µM with K-562 leukemia; over 74.2 µM with MDA-MB-231 breast; over 100 µM in the test with OVCAR-4 ovarian; over 100 µM in the test on OVCAR-8 ovarian. The concentration for total growth inhibition (TGI) in the test on SN12C renal was over 100 µM.
